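48-hour exposure; five concentrations; linearly interpolated endpoints. Here, GI50 denotes the concentration required for 50% inhibition of growth. TGI marks complete inhibition of growth.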
How the values were obtained:
Experiment in all cases: growth of human tumour cells (NCI), 48 h
HCT-116 colon = system: HCT-116 colon
K-562 leukemia = system: K-562 leukemia
MOLT-4 leukemia = system: MOLT-4 leukemia
U251 CNS = system: U251 CNS
786-0 renal = system: 786-0 renal
A498 renal = system: A498 renal
A549 NSCLC = system: A549 NSCLC
ACHN renal = system: ACHN renal
BT-549 breast = system: BT-549 breast
CAKI-1 renal = system: CAKI-1 renal
CCRF-CEM leukemia = system: CCRF-CEM leukemia
COLO 205 colon = system: COLO 205 colon
DU-145 prostate = system: DU-145 prostate
EKVX NSCLC = system: EKVX NSCLC
HCT-15 colon = system: HCT-15 colon
HL-60(TB) leukemia = system: HL-60(TB) leukemia
HOP-62 NSCLC = system: HOP-62 NSCLC
HOP-92 NSCLC = system: HOP-92 NSCLC
HT29 colon = system: HT29 colon
IGROV1 ovarian = system: IGROV1 ovarian
KM12 colon = system: KM12 colon
LOX IMVI melanoma = system: LOX IMVI melanoma
M14 melanoma = system: M14 melanoma
MALME-3M melanoma = system: MALME-3M melanoma
MCF7 breast = system: MCF7 breast
MDA-MB-231 breast = system: MDA-MB-231 breast
MDA-MB-435 = system: MDA-MB-435
NCI-H226 lung = system: NCI-H226 lung
NCI-H23 lung = system: NCI-H23 lung
NCI-H460 lung = system: NCI-H460 lung
NCI-H522 lung = system: NCI-H522 lung
NCI/ADR-RES ovarian = system: NCI/ADR-RES ovarian
OVCAR-3 ovarian = system: OVCAR-3 ovarian
OVCAR-4 ovarian = system: OVCAR-4 ovarian
OVCAR-5 ovarian = system: OVCAR-5 ovarian
OVCAR-8 ovarian = system: OVCAR-8 ovarian
PC-3 prostate = system: PC-3 prostate
RXF 393 renal = system: RXF 393 renal
SF-268 CNS = system: SF-268 CNS
SF-295 CNS = system: SF-295 CNS
SF-539 CNS = system: SF-539 CNS
SK-MEL-2 melanoma = system: SK-MEL-2 melanoma
SK-MEL-28 melanoma = system: SK-MEL-28 melanoma
SK-MEL-5 melanoma = system: SK-MEL-5 melanoma
SK-OV-3 ovarian = system: SK-OV-3 ovarian
SN12C renal = system: SN12C renal
SNB-19 CNS = system: SNB-19 CNS
SNB-75 CNS = system: SNB-75 CNS
SW-620 colon = system: SW-620 colon
T-47D breast = system: T-47D breast
TK-10 renal = system: TK-10 renal
UACC-257 melanoma = system: UACC-257 melanoma
UACC-62 melanoma = system: UACC-62 melanoma
UO-31 renal = system: UO-31 renal

Molecule `Cc1ccc(C2CC3(c4ccccc4)ON=C(c4ccccc4)N3c3ccccc3S2)cc1` (configuration not stated) has a GI50 (HCT-116 colon) of 8.08 µM, a GI50 (K-562 leukemia) of 38.5 µM and a GI50 (MOLT-4 leukemia) of 38.9 µM. The GI50 (U251 CNS) was 20.6 µM.
`Cc1ccc(-c2nc3cc(Cl)c(Cl)cc3nc2C#N)cc1` was tested, and the GI50 (786-0 renal) was 47.5 µM, the TGI (786-0 renal) was > 100 µM and the GI50 (A498 renal) was > 100 µM. The TGI (A498 renal) was > 100 µM, the GI50 (A549 NSCLC) was > 100 µM and the TGI (A549 NSCLC) was > 100 µM. For the same molecule, the GI50 (ACHN renal) was 39 µM, the TGI (ACHN renal) was > 100 µM and the GI50 (BT-549 breast) was > 100 µM. The TGI (BT-549 breast) was > 100 µM, the GI50 (CAKI-1 renal) was > 100 µM and the TGI (CAKI-1 renal) was > 100 µM. For the same molecule, the GI50 (CCRF-CEM leukemia) was > 100 µM, the TGI (CCRF-CEM leukemia) was > 100 µM and the GI50 (COLO 205 colon) was > 100 µM. The TGI (COLO 205 colon) was > 100 µM, the GI50 (DU-145 prostate) was > 100 µM and the TGI (DU-145 prostate) was > 100 µM. For the same molecule, the GI50 (EKVX NSCLC) was > 100 µM, the TGI (EKVX NSCLC) was > 100 µM and the GI50 (HCT-116 colon) was 90.3 µM. For the same molecule, the TGI (HCT-116 colon) was > 100 µM, the GI50 (HCT-15 colon) was > 100 µM and the TGI (HCT-15 colon) was > 100 µM. For the same molecule, the GI50 (HL-60(TB) leukemia) was > 100 µM, the TGI (HL-60(TB) leukemia) was > 100 µM and the GI50 (HOP-62 NSCLC) was > 100 µM. For the same molecule, the TGI (HOP-62 NSCLC) was > 100 µM, the GI50 (HOP-92 NSCLC) was 40.5 µM and the TGI (HOP-92 NSCLC) was > 100 µM. For the same molecule, the GI50 (HT29 colon) was > 100 µM, the TGI (HT29 colon) was > 100 µM and the GI50 (IGROV1 ovarian) was > 100 µM. The TGI (IGROV1 ovarian) was > 100 µM, the GI50 (K-562 leukemia) was > 100 µM and the TGI (K-562 leukemia) was > 100 µM. For the same molecule, the GI50 (KM12 colon) was > 100 µM, the TGI (KM12 colon) was > 100 µM and the GI50 (LOX IMVI melanoma) was > 100 µM. For the same molecule, the TGI (LOX IMVI melanoma) was > 100 µM, the GI50 (M14 melanoma) was > 100 µM and the TGI (M14 melanoma) was > 100 µM. For the same molecule, the GI50 (MALME-3M melanoma) was 92.7 µM, the TGI (MALME-3M melanoma) was > 100 µM and the GI50 (MCF7 breast) was > 100 µM. The TGI (MCF7 breast) was > 100 µM, the GI50 (MDA-MB-231 breast) was > 100 µM and the TGI (MDA-MB-231 breast) was > 100 µM. The GI50 (MDA-MB-435) was > 100 µM, the TGI (MDA-MB-435) was > 100 µM and the GI50 (MOLT-4 leukemia) was > 100 µM. The TGI (MOLT-4 leukemia) was > 100 µM, the GI50 (NCI-H226 lung) was > 100 µM and the TGI (NCI-H226 lung) was > 100 µM. The GI50 (NCI-H23 lung) was > 100 µM, the TGI (NCI-H23 lung) was > 100 µM and the GI50 (NCI-H460 lung) was > 100 µM. For the same molecule, the TGI (NCI-H460 lung) was > 100 µM, the GI50 (NCI-H522 lung) was > 100 µM and the TGI (NCI-H522 lung) was > 100 µM. For the same molecule, the GI50 (NCI/ADR-RES ovarian) was 81.2 µM, the TGI (NCI/ADR-RES ovarian) was > 100 µM and the GI50 (OVCAR-3 ovarian) was > 100 µM. For the same molecule, the TGI (OVCAR-3 ovarian) was > 100 µM, the GI50 (OVCAR-4 ovarian) was > 100 µM and the TGI (OVCAR-4 ovarian) was > 100 µM. The GI50 (OVCAR-5 ovarian) was 46.2 µM, the TGI (OVCAR-5 ovarian) was > 100 µM and the GI50 (OVCAR-8 ovarian) was > 100 µM. The TGI (OVCAR-8 ovarian) was > 100 µM, the GI50 (PC-3 prostate) was > 100 µM and the TGI (PC-3 prostate) was > 100 µM. For the same molecule, the GI50 (RXF 393 renal) was > 100 µM, the TGI (RXF 393 renal) was > 100 µM and the GI50 (SF-268 CNS) was > 100 µM. The TGI (SF-268 CNS) was > 100 µM, the GI50 (SF-295 CNS) was > 100 µM and the TGI (SF-295 CNS) was > 100 µM. The GI50 (SF-539 CNS) was > 100 µM, the TGI (SF-539 CNS) was > 100 µM and the GI50 (SK-MEL-2 melanoma) was > 100 µM. For the same molecule, the TGI (SK-MEL-2 melanoma) was > 100 µM, the GI50 (SK-MEL-28 melanoma) was > 100 µM and the TGI (SK-MEL-28 melanoma) was > 100 µM. The GI50 (SK-MEL-5 melanoma) was > 100 µM, the TGI (SK-MEL-5 melanoma) was > 100 µM and the GI50 (SK-OV-3 ovarian) was > 100 µM. For the same molecule, the TGI (SK-OV-3 ovarian) was > 100 µM, the GI50 (SN12C renal) was > 100 µM and the TGI (SN12C renal) was > 100 µM. For the same molecule, the GI50 (SNB-19 CNS) was > 100 µM, the TGI (SNB-19 CNS) was > 100 µM and the GI50 (SNB-75 CNS) was > 100 µM. The TGI (SNB-75 CNS) was > 100 µM, the GI50 (SW-620 colon) was > 100 µM and the TGI (SW-620 colon) was > 100 µM. For the same molecule, the GI50 (T-47D breast) was > 100 µM, the TGI (T-47D breast) was > 100 µM and the GI50 (TK-10 renal) was 49.2 µM. The TGI (TK-10 renal) was > 100 µM, the GI50 (U251 CNS) was > 100 µM and the TGI (U251 CNS) was > 100 µM. For the same molecule, the GI50 (UACC-257 melanoma) was > 100 µM, the TGI (UACC-257 melanoma) was > 100 µM and the GI50 (UACC-62 melanoma) was > 100 µM. The TGI (UACC-62 melanoma) was > 100 µM, the GI50 (UO-31 renal) was > 100 µM and the TGI (UO-31 renal) was > 100 µM.

Reference: PubChem BioAssay (NCI)
